Assay results published in patent US5618844A, “Hydroxamic acid and carboxylic acid derivatives, process for their preparation and use thereof” (Sanofi S.A., priority 1995, dated 1997).

How the values were obtained:
Type in all cases: biochemical
[1] = molecular target: T1, Human Neutrophil Collagenase (Homo sapiens, UniProt P22894); test: inhibition of recombinant MMP, peptide substrate assay with fluorescamine detection (HNC); conditions: calculated from measured percent inhibition using Km, assuming competitive inhibition; Met100-Gly262
T1 construct: expressed as mature enzymes with C-terminal truncations, Phe83-Thr260 and Met100-Gly262, respectively; made in house
T1 sequence (P22894 100-262): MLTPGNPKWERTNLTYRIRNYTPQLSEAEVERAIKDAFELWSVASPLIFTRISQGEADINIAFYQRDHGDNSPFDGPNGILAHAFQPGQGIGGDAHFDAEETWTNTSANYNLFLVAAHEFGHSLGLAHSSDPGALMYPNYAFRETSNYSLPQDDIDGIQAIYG

[2] = molecular target: T2, Human Fibroblast Stromelysin (Homo sapiens, UniProt P08254); test: inhibition of recombinant MMP, peptide substrate assay with fluorescamine detection (HFS)
T2 construct: expressed as mature enzymes with C-terminal truncations, Phe83-Thr260 and Met100-Gly262, respectively; made in house
T2 sequence (P08254 100-277): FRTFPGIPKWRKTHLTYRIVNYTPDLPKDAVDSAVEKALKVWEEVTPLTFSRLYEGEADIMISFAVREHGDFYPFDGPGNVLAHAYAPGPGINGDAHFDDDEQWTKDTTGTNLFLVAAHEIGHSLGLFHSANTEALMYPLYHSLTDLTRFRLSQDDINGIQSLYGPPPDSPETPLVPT

[3] = molecular target: T3, Human Fibroblast Collagenase (Homo sapiens, UniProt P03956); test: inhibition of recombinant MMP, peptide substrate assay with fluorescamine detection (HFC); conditions: calculated from measured percent inhibition using Km, assuming competitive inhibition; Met1-Pro250 proenzyme, activated with p-aminophenylmercury
T3 construct: All active MMPs are purified by gel filtration; made in house
T3 sequence (P03956 100-269 limits assumed): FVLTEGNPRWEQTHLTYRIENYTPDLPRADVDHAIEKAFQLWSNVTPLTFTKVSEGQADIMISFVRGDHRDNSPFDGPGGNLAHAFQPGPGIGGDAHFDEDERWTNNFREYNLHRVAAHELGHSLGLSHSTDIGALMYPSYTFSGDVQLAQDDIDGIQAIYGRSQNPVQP

Row | Compound | Ki [1] [nM] | Ki [2] [nM] | Ki [3] [nM]
1 | CNC(=O)[C@H](Cc1ccccc1)NC(=O)[C@H](CCCC(=O)O)CC(=O)NO [Example 4, N-[(2R)-2-[2'-(Hydroxyamino)-2'-(oxo)ethyl]-5-(carboxy)pentanoyl]-L-phenylalanine N-methylamide] | 270 | – | –
2 | CNC(=O)[C@@H](NC(=O)[C@H](CCCCOc1cccc(C)c1)CC(=O)O)C(C)(C)C [Example 19, (2S)-N-2'-[(2'R)-2'-(carboxymethyl)-6'-(3-methylphenoxy)hexanoyl]amino-3,3-dimethylbutanoic acid N-methylamide] | – | 220 | 1800
3 | CNC(=O)[C@H](Cc1ccccc1)NC(=O)[C@H](CCCC(C)O)CC(=O)NO (stereo partly drawn) [Example 6, N-[(2R)-2-[2'-(Hydroxyamino)-2'-(oxo)ethyl]-(6RS)-6-(hydroxy)heptanoyl]-L-phenylalanine N-methylamide] | 20 | 1500 | 150
4 | CNC(=O)[C@H](Cc1ccccc1)NC(=O)[C@H](CCCCCOCc1ccccc1)CC(=O)NO [Example 11, N-[(2R)-2-[2'-(Hydroxyamino)-2'-(oxo)ethyl]-7-(phenylmethoxy)heptanoyl]-L-phenylalanine N-methylamide] | 4 | – | 920
5 | CNC(=O)[C@H](Cc1ccccc1)NC(=O)[C@H](CCCOCc1ccccc1)CC(=O)NO [Example 10, N-[(2R)-2-[2'-(Hydroxyamino)-2'-(oxo)ethyl]-5-(phenylmethoxy)pentanoyl]-L-phenylalanine N-methylamide] | – | – | 2270
6 | CNC(=O)[C@H](Cc1ccccc1)NC(=O)[C@H](CCCCOCc1ccccc1)CC(=O)NO [Example 2, N-[(2R)-2-[2'-(Hydroxyamino)-2'(oxo)ethyl]-6-(phenylmethoxy)hexanoyl]-L-phenylalanine N-methylamide] | – | – | 1450
7 | CNC(=O)[C@@H](NC(=O)[C@H](CCCCOc1ccc(C)cc1)CC(=O)NO)C(C)(C)C [Example 16, (2S)-N-2'-[(2'R)-2'-[2"-(Hydroxyamino)-2"-(oxo)ethyl]-6'-(4-methylphenoxy)hexanoyl]amino-3,3-dimethylbutanoic acid N-methylamide] | – | – | 14
8 | CNC(=O)[C@H](Cc1ccccc1)NC(=O)[C@H](CCCCO)CC(=O)NO [Example 3, N-[(2R)-2-[2'-(hydroxyamino)-2'-(oxo)ethyl]-6-(hydroxy)hexanoyl]-L-phenylalanine N-methylamide] | 7 | – | 30
9 | CCCC(=O)NCCCC[C@H](CC(=O)NO)C(=O)N[C@@H](Cc1ccccc1)C(=O)NC [Example 12] | 120 | – | 1600
10 | CNC(=O)[C@@H](NC(=O)[C@H](CCCCO)CC(=O)NO)C(C)(C)C [Example 9, (2S)-N-2-[(2'R)-2'-[2"-(Hydroxyamino)-2"-(oxo)ethyl]-6'-(hydroxy)hexanoyl]amino-3,3-dimethylbutanoic acid N-methylamide] | 17 | 5000 | 27
11 | CNC(=O)[C@H](Cc1ccccc1)NC(=O)[C@H](CCCCOc1ccccc1)CC(=O)NO [Example 13, N-[(2R)-2-[2'-(Hydroxyamino)-2'-(oxo)ethyl]-6-(phenoxy)-hexanoyl]-L-phenylalanine N-methylamide] | – | – | 8
12 | CNC(=O)[C@@H](NC(=O)[C@H](CCCCOCc1ccccc1)CC(=O)NO)C(C)(C)C [Example 8, (2S)-N-2-[(2'R)-2'-[2"-(Hydroxyamino)-2"-(oxo)ethyl]-6'-(phenylmethoxy)hexanoyl]amino-3,3-dimethylbutanoic acid N-methylamide] | 5 | 57 | 1400
13 | CNC(=O)[C@@H](NC(=O)[C@H](CCCC(=O)NCCc1ccccc1)CC(=O)NO)C(C)(C)C [Example 15, (2S)-N-2'-[(2'R)-2'-[2"-(Hydroxyamino)-2"-(oxo)ethyl]-6'-(2-phenethylamino)-6' (oxo)hexanoyl]amino-3,3-dimethylbutanoic acid N-methylamide] | 16 | 26 | 35
14 | CNC(=O)[C@@H](NC(=O)[C@H](CCCCOc1ccc(Cl)cc1)CC(=O)NO)C(C)(C)C [Example 17, (2S)-N-2'-[(2'R)-2'-[2"-(Hydroxyamino)-2"-(oxo)ethyl]-6'-(4-chlorophenoxy)hexanoyl]amino-3,3-dimethylbutanoic acid N-methylamide] | – | – | 21
15 | CCCNC(=O)CCC[C@H](CC(=O)NO)C(=O)N[C@@H](Cc1ccccc1)C(=O)NC [Example 5, N-[(2R)-2-[2'-(Hydroxyamino)-2'-(oxo)ethyl]-6-(propylamino)-6-(oxo)hexanoyl]-L-phenylalanine N-methylamide] | < 2 | – | 5100
